From US20240252488A1 (KOREA RESEARCH INSTITUTE OF CHEMICAL TECHNOLOGY, priority 2020, published 2024)

Experiments:
FADD−/− Jurkat cells = experiment: Necroptosis inhibition assay, TNF-α-induced necroptosis (CellTiter-Glo 2.0); type: cell-based, human; details: TNF-α 15 ng/mL, FADD−/− Jurkat cells; for Necroptosis inhibition assay (Rescue %) 1 μM: compound 1 μM; for Necroptosis inhibition assay (Rescue %) 10 μM: compound 10 μM
How it was run: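 Necroptosis induced by 15 ng/mL TNF-α (final) for 20–24 h at 37 °C, after a 30 min room-temperature pretreatment of FADD-deficient Jurkat cells with 0.1, 1 or 10 μM compound. ATP-based luminescence gave viability, from which inhibition rate and cytotoxicity were derived.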

MLKL [1] = target: T1, MLKL (Homo sapiens, UniProt Q8NB16); experiment: MLKL degradation assay in HepG2 cell line (western blot); type: cell-based; set-up: endogenous in cells; host or cells: HepG2 or HaCaT; details: cell line not given; for Degradation assay (Degradation %) 1 μM: compound 1 μM; for Degradation assay (Degradation %) 10 μM: compound 10 μM
T1 sequence (Q8NB16 1-471): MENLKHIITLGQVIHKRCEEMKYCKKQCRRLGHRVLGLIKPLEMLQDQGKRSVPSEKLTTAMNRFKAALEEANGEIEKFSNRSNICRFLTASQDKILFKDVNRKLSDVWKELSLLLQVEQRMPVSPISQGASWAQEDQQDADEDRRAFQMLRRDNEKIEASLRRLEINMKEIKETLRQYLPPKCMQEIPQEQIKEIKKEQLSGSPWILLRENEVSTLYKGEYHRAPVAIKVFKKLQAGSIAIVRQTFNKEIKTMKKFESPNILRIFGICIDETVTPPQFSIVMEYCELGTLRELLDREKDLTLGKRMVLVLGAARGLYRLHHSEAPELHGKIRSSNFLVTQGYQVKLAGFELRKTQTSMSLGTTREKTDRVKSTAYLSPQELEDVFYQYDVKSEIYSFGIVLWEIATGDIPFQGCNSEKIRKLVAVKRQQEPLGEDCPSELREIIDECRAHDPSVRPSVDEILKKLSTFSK
How it was run: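 Western blot chemiluminescence of MLKL in equal-protein lysates (10-15 μg, BCA-adjusted). Before lysis, HepG2 cells were exposed to 1 or 10 μM (final) test compound for 20-24 h at 37 °C.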

MLKL [2] = target: T1, MLKL; experiment: Measurement of binding affinity with MLKL receptor (competitive binding assay, Kd); set-up: made in house; host or cells: HEK 293 cell line (T7 phage in E. coli BL21-derived host is also described)
How it was run: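 HEK 293-expressed, DNA-tagged MLKL; ligand beads blocked with biotin and SeaBlock/1% BSA/0.05% Tween 20/1 mM DTT buffer. Cpd from 111× DMSO stock, 0.9% DMSO final. Eluted kinase by qPCR → Kd.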

| Degradation assay (Degradation %) 1 μM (MLKL [1]) [%] | Degradation assay (Degradation %) 10 μM (MLKL [1]) [%] | Kd (MLKL [2]) [nM] | SMILES | Necroptosis inhibition assay (Rescue %) 1 μM (FADD−/− Jurkat cells) [%] | Necroptosis inhibition assay (Rescue %) 10 μM (FADD−/− Jurkat cells) [%] |
| --- | --- | --- | --- | --- | --- |
| 92.44 | 94.32 | 19 | Nc1ncc(-c2cnn(C3CCN(CCC4CCN(c5cc6c(cc5F)C(=O)N(C5CCC(=O)NC5=O)C6=O)CC4)CC3)c2)nc1C(=O)O[C@@H](C(=O)Nc1ccc(F)cc1)c1ccccc1 (stereo partly drawn) [TDH-520, (R)-2-((4-fluorophenyl)amino)-2-oxo-1-phenylethyl 3-amino-6-(1-(1-(2-(1-(2-(2,6-dioxopiperidin-3-yl)-6-fluoro-1,3-dioxoisoindolin-5-yl)piperidin-4-yl)ethyl)piperidin-4-yl)-1H-pyrazol-4-yl)pyrazine-2-carboxylate] | 63.56 | 36.11 |
| 91.54 | 78.62 | 1.5 | Nc1ncc(-c2cnn(C3CCN(CC4CCN(C5=CC(=O)N(C6CCC(=O)NC6=O)C5=O)CC4)CC3)c2)nc1C(=O)O[C@@H](C(=O)Nc1ccc(F)cc1)c1ccccc1 (stereo partly drawn) [TDH-521, (R)-2-((4-fluorophenyl)amino)-2-oxo-1-phenylethyl 3-amino-6-(1-(1-((1-(1-(2,6-dioxopiperidin-3-yl)-2,5-dioxo-2,5-dihydro-1H-pyrrol-3-yl)piperidin-4-yl)methyl)piperidin-4-yl)-1H-pyrazol-4-yl)pyrazine-2-carboxylate] | 0.16 | 1.33 |
| 84.27 | 51.16 | 1.3 | Nc1ncc(-c2cnn(C3CCN(CCC4CCN(C5=CC(=O)N(C6CCC(=O)NC6=O)C5=O)CC4)CC3)c2)nc1C(=O)O[C@@H](C(=O)Nc1ccc(F)cc1)c1ccccc1 (stereo partly drawn) [TDH-522, (R)-2-((4-fluorophenyl)amino)-2-oxo-1-phenylethyl 3-amino-6-(1-(1-(2-(1-(1-(2,6-dioxopiperidin-3-yl)-2,5-dioxo-2,5-dihydro-1H-pyrrol-3-yl)piperidin-4-yl)ethyl)piperidin-4-yl)-1H-pyrazol-4-yl)pyrazine-2-carboxylate] | 21.52 | −21.15 |
| 89.24 | 77.14 | 1 | Nc1ncc(-c2cnn(C3CCN(CC4CCN(C(=O)C5CCN(C6=CC(=O)N(C7CCC(=O)NC7=O)C6=O)CC5)CC4)CC3)c2)nc1C(=O)O[C@@H](C(=O)Nc1ccc(F)cc1)c1ccccc1 (stereo partly drawn) [TDH-523, (R)-2-((4-fluorophenyl)amino)-2-oxo-1-phenylethyl 3-amino-6-(1-(1-((1-(1-(1-(2,6-dioxopiperidin-3-yl)-2,5-dioxo-2,5-dihydro-1H-pyrrol-3-yl)piperidine-4-carbonyl)piperidin-4-yl)methyl)piperidin-4-yl)-1H-pyrazol-4-yl)pyrazine-2-carboxylate] | 35.34 | 16.27 |
| 89.35 | 83.06 | 0.99 | Nc1ncc(-c2cnn(C3CCN(CCC4CCN(C(=O)C5CCN(C6=CC(=O)N(C7CCC(=O)NC7=O)C6=O)CC5)CC4)CC3)c2)nc1C(=O)O[C@@H](C(=O)Nc1ccc(F)cc1)c1ccccc1 (stereo partly drawn) [TDH-524, (R)-2-((4-fluorophenyl)amino)-2-oxo-1-phenylethyl 3-amino-6-(1-(1-(2-(1-(1-(1-(2,6-dioxopiperidin-3-yl)-2,5-dioxo-2,5-dihydro-1H-pyrrol-3-yl)piperidine-4-carbonyl)piperidin-4-yl)ethyl)piperidin-4-yl)-1H-pyrazol-4-yl)pyrazine-2-carboxylate] | 48.61 | 15.69 |
| 67.25 | 81.42 | 1.2 | Nc1ncc(-c2cnn(C3CCN(CCCN4CCN(C(=O)C5CCN(C6=CC(=O)N(C7CCC(=O)NC7=O)C6=O)CC5)CC4)CC3)c2)nc1C(=O)O[C@@H](C(=O)Nc1ccc(F)cc1)c1ccccc1 (stereo partly drawn) [TDH-526, (R)-2-((4-fluorophenyl)amino)-2-oxo-1-phenylethyl 3-amino-6-(1-(1-(3-(4-(1-(1-(2,6-dioxopiperidin-3-yl)-2,5-dioxo-2,5-dihydro-1H-pyrrol-3-yl)piperidine-4-carbonyl)piperazin-1-yl)propyl)piperidin-4-yl)-1H-pyrazol-4-yl)pyrazine-2-carboxylate] | 57.37 | 22.77 |

Continued, compound first:

| SMILES | Degradation assay (Degradation %) 1 μM (MLKL [1]) [%] | Degradation assay (Degradation %) 10 μM (MLKL [1]) [%] | Kd (MLKL [2]) [nM] | Necroptosis inhibition assay (Rescue %) 1 μM (FADD−/− Jurkat cells) [%] | Necroptosis inhibition assay (Rescue %) 10 μM (FADD−/− Jurkat cells) [%] |
| --- | --- | --- | --- | --- | --- |
| COc1ccc(C(=O)N2CCC(C(=O)N3CCC(CN4CCC(n5cc(-c6cnc(N)c(C(=O)O[C@@H](C(=O)Nc7ccc(F)cc7)c7ccccc7)n6)cn5)CC4)CC3)CC2)cc1N1CCC(=O)NC1=O [TDH-515, (R)-2-((4-fluorophenyl)amino)-2-oxo-1-phenylethyl 3-amino-6-(1-(1-((1-(1-(3-(2,4-dioxotetrahydropyrimidin-1(2H)-yl)-4-methoxybenzoyl)piperidine-4-carbonyl)piperidin-4-yl)methyl)piperidin-4-yl)-1H-pyrazol-4-yl)pyrazine-2-carboxylate] | 95.21 | 89.06 | 1.4 | 68.04 | 15.68 |
| Nc1ncc(-c2cnn(C3CCN(CC4CCN(C(=O)Cc5cccc(NC6=CC(=O)N(C7CCC(=O)NC7=O)C6=O)c5)CC4)CC3)c2)nc1C(=O)O[C@@H](C(=O)Nc1ccc(F)cc1)c1ccccc1 (stereo partly drawn) [TDH-516, (R)-2-((4-fluorophenyl)amino)-2-oxo-1-phenylethyl 3-amino-6-(1-(1-((1-(2-(3-((1-(2,6-dioxopiperidin-3-yl)-2,5-dioxo-2,5-dihydro-1H-pyrrol-3-yl)amino)phenyl)acetyl)piperidin-4-yl)methyl)piperidin-4-yl)-1H-pyrazol-4-yl)pyrazine-2-carboxylate] | 81.44 | 77.67 | 9.7 | 17.46 | 5.65 |
| COc1ccc(C(=O)N2CCC(C(=O)N3CCC(CCN4CCC(n5cc(-c6cnc(N)c(C(=O)O[C@@H](C(=O)Nc7ccc(F)cc7)c7ccccc7)n6)cn5)CC4)CC3)CC2)cc1N1CCC(=O)NC1=O [TDH-517, (R)-2-((4-fluorophenyl)amino)-2-oxo-1-phenylethyl 3-amino-6-(1-(1-(2-(1-(1-(3-(2,4-dioxotetrahydropyrimidin-1(2H)-yl)-4-methoxybenzoyl)piperidine-4-carbonyl)piperidin-4-yl)ethyl)piperidin-4-yl)-1H-pyrazol-4-yl)pyrazine-2-carboxylate] | 93.97 | 86.64 | 0.62 | 58.11 | 10.78 |
| Nc1ncc(-c2cnn(C3CCN(CCC4CCN(C(=O)Cc5cccc(NC6=CC(=O)N(C7CCC(=O)NC7=O)C6=O)c5)CC4)CC3)c2)nc1C(=O)O[C@@H](C(=O)Nc1ccc(F)cc1)c1ccccc1 (stereo partly drawn) [TDH-518, (R)-2-((4-fluorophenyl)amino)-2-oxo-1-phenylethyl 3-amino-6-(1-(1-(2-(1-(2-(3-((1-(2,6-dioxopiperidin-3-yl)-2,5-dioxo-2,5-dihydro-1H-pyrrol-3-yl)amino)phenyl)acetyl)piperidin-4-yl)ethyl)piperidin-4-yl)-1H-pyrazol-4-yl)pyrazine-2-carboxylate] | 89.77 | 88.59 | 4.3 | 12.44 | −8.57 |
| Nc1ncc(-c2cnn(C3CCN(CC4CCN(c5cc6c(cc5F)C(=O)N(C5CCC(=O)NC5=O)C6=O)CC4)CC3)c2)nc1C(=O)O[C@@H](C(=O)Nc1ccc(F)cc1)c1ccccc1 (stereo partly drawn) [TDH-519, (R)-2-((4-fluorophenyl)amino)-2-oxo-1-phenylethyl 3-amino-6-(1-(1-((1-(2-(2,6-dioxopiperidin-3-yl)-6-fluoro-1,3-dioxoisoindolin-5-yl)piperidin-4-yl)methyl)piperidin-4-yl)-1H-pyrazol-4-yl)pyrazine-2-carboxylate] | 89.40 | 86.43 | 7.1 | 4.80 | 17.07 |
